Data on 25 compounds can be found in ChEMBL document CHEMBL4622958, “Tetrazoles as anticancer agents: A review on synthetic strategies, mechanism of action and SAR studies” (Bioorg Med Chem, 2020).

The structures appear in SMILES notation. ≈ marks a conversion by molar mass, not a printed value. Counter-ions that a name gives are not always drawn.

The subject of series [1] is U2OS. Description: Cytotoxicity against human U2OS cells assessed as reduction in cell viability at 20 uM by CellTiter 96 non-radioactive cell proliferation assay relative to control. The class given is functional.
The subject of series [2] is U2OS. Description: Cytotoxicity against human U2OS cells assessed as reduction in cell viability by CellTiter 96 non-radioactive cell proliferation assay. The class given is functional, cell-based.
The test system of series [3] is MCF7. Description: Cytotoxicity against human MCF7 cells assessed as reduction in cell viability after 48 hrs by MTT assay. The class given is functional, cell-based. The conditions noted are these: MCF7, 48 h. (Formazan colour is commonly taken as a measure of viable cells.)
In another series the test system is HeLa. Description: Cytotoxicity against human HeLa cells assessed as reduction in cell viability after 48 hrs by MTT assay. The format is functional, cell-based.
In another series the test system is HUVEC. Kind of series: Cytotoxicity against HUVEC assessed as reduction in cell viability. The format is cell-based. The note with it: Homo sapiens.
The subject of another series is HOP-62. Kind of series: Growth inhibition of human HOP62 cells after 48 hrs by MTT assay. The format is functional. The conditions noted are these: HOP-62, 48 h.
Series [4] has as its system MCF7. Kind of series: Growth inhibition of human MCF7 cells after 48 hrs by MTT assay. The class given is functional. The note with it: MCF7, 48 h.
The test system of series [5] is CCRF-CEM. Kind of series: Cytotoxicity against human CCRF-CEM cells assessed as reduction in cell viability at 25 uM after 24 hrs by MTT assay relative to control. The conditions noted are these: values are per cent of control. The class given is functional.
Series [6] deals with CCRF-CEM. Kind of series: Cytotoxicity against human CCRF-CEM cells assessed as reduction in cell viability at 50 uM after 24 hrs by MTT assay relative to control. The class given is functional. The note with it: values are per cent of control.
Series [7] deals with CCRF-CEM. Kind of series: Cytotoxicity against human CCRF-CEM cells assessed as reduction in cell viability at 25 uM after 48 hrs by MTT assay relative to control. The class given is functional. The conditions noted are these: values are per cent of control.
For series [8], the system named is CCRF-CEM. Description: Cytotoxicity against human CCRF-CEM cells assessed as reduction in cell viability at 10 uM after 24 hrs by MTT assay relative to control. The class given is functional. The note with it: values are per cent of control.
Series [9] deals with CCRF-CEM. Description: Cytotoxicity against human CCRF-CEM cells assessed as reduction in cell viability at 50 uM after 48 hrs by MTT assay relative to control. The note with it: values are per cent of control. The class given is functional.
The subject of series [10] is CCRF-CEM. Kind of series: Cytotoxicity against human CCRF-CEM cells assessed as reduction in cell viability at 10 uM after 48 hrs by MTT assay relative to control. The class given is functional. The conditions noted are these: values are per cent of control.
In a further series the test system is A549. Kind of series: Anticancer activity against human A549 cells after 48 hrs by MTT assay. The class given is functional, cell-based. The note with it: A549, 48 h.
Another series concerns HT-29. Kind of series: Anticancer activity against human HT-29 cells after 48 hrs by MTT assay. The note with it: HT-29, 48 h. The class given is functional, cell-based.
Series [11] can be described thus: Half life in human liver microsome. The class given is ADME. The conditions noted are these: liver microsomes.
Series [12] has as its system HepG2. Description: Anticancer activity against human HepG2 cells after 48 hrs by MTT assay. The note with it: HepG2, 48 h. The class given is functional, cell-based.
The test system of series [13] is MCF7. Description: Anticancer activity against human MCF7 cells after 48 hrs by MTT assay. The format is functional, cell-based. The note with it: MCF7, 48 h.
Series [14] relates to HepG2. Description: Anticancer activity against human HepG2 cells after 48 hrs by SRB assay. The note with it: HepG2, 48 h. For orientation: Sulforhodamine B stains cellular protein and so reports cell mass.

The term EC50 denotes the concentration at which the effect is half-maximal. In the case of `CC(C)(C)n1nnc([C@H](CCCNC(=N)CBr)NC(=O)c2ccc(-c3ccccc3)cc2)n1`, the Activity in the series with U2OS [1] was 50%. Besides, the EC50 with U2OS [2] was determined as 45 µM.

As a reminder, the IC50 is the point on the concentration scale where inhibition reaches its midpoint. As for `Brc1ccc2nc(/C=C/c3ccccc3)n3nnnc3c2c1`, the IC50 came out at 9.6 µM in the series on MCF7 [3] and 7.3 µM in the series with HeLa.

`CCC(C)n1ncn(-c2ccc(N3CCN(c4ccc(OC[C@@H]5CO[C@@](Cn6ncnn6)(c6ccc(Cl)cc6Cl)O5)cc4)CC3)cc2)c1=O` (some centres undefined): the IC50 with HUVEC turned out to be 0.124 µM.

For orientation: GI50 means the concentration that inhibits growth by half. The low end stands for more potent growth inhibition, the high end for less potent growth inhibition. On to `COc1cccc2c1C(=O)c1c(O)c3c(c(O)c1C2=O)C[C@@](O)(C(=O)CO)C[C@@H]3O[C@H]1C[C@H](N)[C@H](O)[C@H](C)O1` [DOXORUBICIN HYDROCHLORIDE], for which the GI50 came out at 0.14 µM with HOP-62 and 170 µM in the series on MCF7 [4].

For `CCOC(=O)Cn1nnnc1/C(=C/c1ccc(OC)cc1)NC(=O)c1ccccc1`, the IC50 with MCF7 [3] stood at 44.6 µM.

Turning to `Fc1ccc(-c2ccc3nc(/C=C/c4ccccc4)n4nnnc4c3c2)cc1`, the IC50 in the series with MCF7 [3] and in the series with HeLa was above 200 µM throughout.

As for `Brc1c(Br)c(Br)c2c(ncn2CCCn2nnnc2-c2ccccc2)c1Br`, the results for the viability, % of control at 25 µM with CCRF-CEM [5] and in the series with CCRF-CEM [7] were 4% and 0%, respectively. The viability, % of control at 50 µM in the series on CCRF-CEM [6] worked out at 2%; in the series with CCRF-CEM [9], 0%. Also, the results for the viability, % of control at 10 µM in the series on CCRF-CEM [8] and with CCRF-CEM [10] were 67% and 57%, respectively.

Take `Clc1ccccc1-c1nnnn1CCCn1cnc2c(Br)c(Br)c(Br)c(Br)c21`: the viability, % of control at 25 µM in the series with CCRF-CEM [5] and in the series with CCRF-CEM [7] was 1% in each case. For the same compound, the figures for the viability, % of control at 50 µM with CCRF-CEM [6] and with CCRF-CEM [9] were 2% and 0%, respectively. In addition, the figures for the viability, % of control at 10 µM in the series with CCRF-CEM [8] and in the series on CCRF-CEM [10] were 65% and 51%, respectively.

Regarding `O=[N+]([O-])c1cccc(-c2nnnn2-c2ccc(-c3nc4ccccc4o3)cc2)c1`, in the series with HOP-62, the GI50 worked out at 2.9 µM.

With `Brc1c(Br)c(Br)c2c(ncn2CCCn2nnc(-c3ccccc3)n2)c1Br`, the viability, % of control at 25 µM was 73% in the series with CCRF-CEM [5] and 64% with CCRF-CEM [7]. The viability, % of control at 50 µM is 4% in the series with CCRF-CEM [6] and 0% with CCRF-CEM [9]. For the same compound, the figures for the viability, % of control at 10 µM with CCRF-CEM [8] and with CCRF-CEM [10] were 106% and 105%, respectively.

As to `CCC(C)n1ncn(-c2ccc(N3CCN(c4ccc(OC[C@@H]5CO[C@@](Cn6nnnc6C)(c6ccc(Cl)cc6Cl)O5)cc4)CC3)cc2)c1=O` (some centres undefined), the IC50 with HUVEC was found to be 0.101 µM.

One may read the half-life as the time needed for the level to fall by half in the phase considered. Low values mean fast loss, high ones slow loss. Regarding `O=C(NC(=O)Nc1ccc(Oc2ccnc(-n3cnnn3)c2)c(F)c1)Nc1cccc(F)c1`, the IC50 worked out at 6.25 µM with A549, 20.6 µM in the series with HT-29, 0.55 µM with HepG2 [12] and 7.76 µM with MCF7 [13]. Moreover, the half-life in [11] stood at 2.28 h.

Regarding `O=[N+]([O-])c1ccc(-c2nnnn2-c2ccc(-c3nc4ccccc4o3)cc2)cc1`, the GI50 in the series on HOP-62 was 1.22 µM.

In the case of `Clc1ccccc1-c1nnn(CCCn2cnc3c(Br)c(Br)c(Br)c(Br)c32)n1`, the viability, % of control at 25 µM in the series with CCRF-CEM [5] was determined as 96%; in the series on CCRF-CEM [7], 89%. Moreover, the viability, % of control at 50 µM in the series with CCRF-CEM [6] came to 68%; with CCRF-CEM [9], 42%. The viability, % of control at 10 µM worked out at 102% in the series on CCRF-CEM [8] and 104% in the series on CCRF-CEM [10].

For `CCOC(=O)Cn1nnnc1/C(=C/c1ccc(Cl)cc1)NC(=O)c1ccccc1`, in the series on MCF7 [3], the IC50 stood at 40.2 µM.

Regarding `Fc1ccc(/C=C/c2nc3ccc(Br)cc3c3nnnn23)cc1`, the IC50 in the series with MCF7 [3] stood at 21 µM; with HeLa, 22.4 µM.

Take `N[C@@H](Cc1ccc(N(CCCl)CCCl)cc1)C(=O)O`: the values for the IC50 with MCF7 [3] and in the series with HeLa were 61 µM and 88.9 µM, respectively.

As for `CCC(C)n1ncn(-c2ccc(N3CCN(c4ccc(OC[C@@H]5CO[C@@](Cn6nnnc6-c6ccccc6)(c6ccc(Cl)cc6Cl)O5)cc4)CC3)cc2)c1=O` (some centres undefined), the IC50 in the series on HUVEC is 0.119 µM.

As for `COc1cc(-c2nnnn2-c2ccc(-c3nc4ccccc4o3)cc2)cc(OC)c1OC`, the GI50 with HOP-62 amounted to 1.67 µM.

Turning to `CNC(=O)c1cc(Oc2ccc(NC(=O)Nc3ccc(Cl)c(C(F)(F)F)c3)cc2)ccn1` [SORAFENIB], the IC50 with A549 is 11.2 µM; in the series on HT-29 it was 10.1 µM; with HepG2 [12] it was 9.64 µM; in the series on MCF7 [13], 10.9 µM.

In the series on HepG2 [14], `COc1cccc2c1C(=O)c1c(O)c3c(c(O)c1C2=O)C[C@@](O)(C(=O)CO)C[C@@H]3O[C@H]1C[C@H](N)[C@H](O)[C@H](C)O1` [DOXORUBICIN] showed an IC50 of 4000 µg/mL (≈ 7.36 mM).

With `O=C(NC(=O)Nc1ccc(F)cc1F)Nc1ccc(Oc2ccnc(-n3cnnn3)c2)c(F)c1`, the IC50 was 10.6 µM with A549, 5.97 µM with HT-29, 5.72 µM with HepG2 [12] and 9.88 µM with MCF7 [13]. Besides, in series [11], the half-life worked out at 9.17 h.

`Fc1ccc(C#Cc2ccc3nc(/C=C/c4ccccc4)n4nnnc4c3c2)cc1`: the IC50 in the series on MCF7 [3] and with HeLa was above 200 µM in each case.

As for `CC(C)(C)n1nnc([C@H](CCCNC(=N)CCl)NC(=O)c2ccc(-c3ccccc3)cc2)n1`, the Activity with U2OS [1] was 0%. Also, in the series with U2OS [2], the EC50 was 10 µM.

In the case of `CCOC(=O)Cn1nnnc1/C(=C/c1ccc(F)cc1)NC(=O)c1ccccc1`, in the series on MCF7 [3], the IC50 was 47.9 µM.
